Test: accumulated release of functional components from the contact lens over time, detected by high performance liquid chromatography
Type: physicochemical
Details: with a cyclic oligosaccharide or cyclic polysaccharide
Description: Further, the present invention uses high performance liquid chromatography to detect accumulation of the released functional components of the contact lens with increasing time. It is learned from FIG. 2: the contact lens of the present invention, which is a HEMA lens made up of 38% water by weight and a cyclic oligosaccharide or cyclic polysaccharide, can persistently release Vitamin B12 for a longer period of time (more than 12 hours). It is learned from FIG. 3: the contact lens of the present invention, which is an organosilicon hydrogel contact lens made up of 43% water by weight and a cyclic oligosaccharide or cyclic polysaccharide, can persistently release Vitamin B12 for a longer period of time (more than 12 hours). It is learned from FIG. 4: the contact lens of the present invention, which contains HEMA and 38% water by weight and a cyclic oligosaccharide or cyclic polysaccharide, can persistently release curcumin for a longer period of time (more than 20 hours). It is learned from FIG. 5: the contact lens of the present invention, which contains HEMA and 38% water by weight and a cyclic oligosaccharide or cyclic polysaccharide, can persistently release quercetin in a longer time interval (more than 20 hours). It is learned from FIG. 6: the contact lens of the present invention, which is made from HEMA and 38% water by weight, and a cyclic oligosaccharide or cyclic polysaccharide, can persistently release xanthophyll for a longer period of time (more than 30 hours).

[1] = HEMA contact lens, 38% water by weight, FIG. 2, 4, 5, 6

Row | Substance | period of persistent release of the functional component from the contact lens [1] | period of persistent release of the functional component from the contact lens (organosilicon hydrogel contact lens, 43% water by weight, FIG. 3)
1 | Vitamin B12 | more than 12 hours | more than 12 hours
2 | xanthophyll | more than 30 hours | 

From patent publication US20200054555A1, “CONTACT LENS WITH FUNCTIONAL COMPONENTS AND PRODUCTS THEREOF” (UNICON OPTICAL CO., LTD., priority 2018, published 2020)
